# Experimental data from ChEMBL document CHEMBL1201862, “PubChem BioAssay data set” (2004).
# Activity calls are given as the source filed them.
# Assays:
# [1] = biological target: T1, Mannose-6-phosphate isomerase (Homo sapiens, UniProt P34949); experiment: MPI inhibition at elevated mannose 6-phosphate – biochemical, fluorescence intensity, high mannose 6-phosphate, primary screen (AID 1220)
# T1 sequence (P34949 whole entry): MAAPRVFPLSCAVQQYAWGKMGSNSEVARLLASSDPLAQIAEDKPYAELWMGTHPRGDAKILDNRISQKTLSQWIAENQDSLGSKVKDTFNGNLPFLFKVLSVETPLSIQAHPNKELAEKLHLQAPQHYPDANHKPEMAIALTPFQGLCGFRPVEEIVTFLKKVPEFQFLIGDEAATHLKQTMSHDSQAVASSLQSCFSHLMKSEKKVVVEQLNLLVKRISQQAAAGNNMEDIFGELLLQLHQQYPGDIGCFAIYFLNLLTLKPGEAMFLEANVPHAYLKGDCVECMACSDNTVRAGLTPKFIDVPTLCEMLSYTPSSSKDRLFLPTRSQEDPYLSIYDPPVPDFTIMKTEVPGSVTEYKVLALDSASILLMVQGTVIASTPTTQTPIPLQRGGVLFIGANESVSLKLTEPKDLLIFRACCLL
# Prothrombin = Prothrombin (Homo sapiens, UniProt P00734); experiment: Thrombin 1536 HTS Dose Response Confirmation. [Related pubchem assays: 1046 (Thrombin 1536 HTS; hits were confirmed in this assay)]; format: functional
# [2] = Luminescence-based cell-based high throughput dose response assay to identify activators of the DAF-12 from the parasite S. stercoralis (ssDAF-12).; format: functional
# [3] = biological target: T2, Oxysterols receptor LXR-beta (Homo sapiens, UniProt P55055); experiment: LXR agonists, Gal4 luciferase reporter, dose response, counter-screen for ssDAF-12 agonist project, cell-based, luminescence, HEK293, S. stercoralis campaign (AID 720737); format: functional; conditions: read-out: IC50 (the source's name)
# T2 sequence (P55055 whole entry): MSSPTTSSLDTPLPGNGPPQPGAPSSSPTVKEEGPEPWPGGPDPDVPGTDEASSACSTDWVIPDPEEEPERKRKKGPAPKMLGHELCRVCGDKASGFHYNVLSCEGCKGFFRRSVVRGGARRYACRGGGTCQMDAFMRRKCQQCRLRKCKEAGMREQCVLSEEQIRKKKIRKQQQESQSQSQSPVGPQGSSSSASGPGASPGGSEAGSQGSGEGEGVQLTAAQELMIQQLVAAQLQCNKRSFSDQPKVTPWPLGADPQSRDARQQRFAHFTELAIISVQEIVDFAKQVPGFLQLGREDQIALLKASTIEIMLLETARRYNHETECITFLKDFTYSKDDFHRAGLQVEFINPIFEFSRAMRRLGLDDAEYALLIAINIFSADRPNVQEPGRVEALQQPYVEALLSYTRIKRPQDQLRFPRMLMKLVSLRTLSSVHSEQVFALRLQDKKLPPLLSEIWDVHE
# [4] = A549 cell cytotoxicity, dose response, cytotoxicity control, plate reader, cherry-pick, antagonist series (AID 743412); format: functional, cell-based
# [5] = toxicity toward HepG2 liver cells – cell-based, plate reader, cherry-pick, antagonist series, cytotoxicity control, dose response (AID 743416); format: functional
# [6] = blockers of bursicon-stimulated LGR2 cAMP reporter – cell-based, HEK293, CRE-luciferase reporter, cherry pick, set 2, dose response (AID 743343); format: functional;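 note: transfected cells were stimulated with diluted bursicon conditioned medium after compound addition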
# [7] = blockade of melanocortin 4 receptor signaling – cell-based, plate reader, cherry pick, counter-screen for LGR2 antagonist project, dose response (AID 743444); format: functional;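 note: transfected HEK 293 cells stimulated with alpha-MSH peptide; potency of inhibitors of the alpha-MSH evoked signal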
# [8] = viability loss in HEK293 cells – cell-based, plate reader, cherry-picked samples, cytotoxicity control, dose response (AID 743446); format: functional
# cells [9] = format: functional
# cells [10] = format: functional, cell-based
# cells [11] = format: functional, cell-based; remark: listed apart in the source
# Cytochrome P450 2D6 = Cytochrome P450 2D6 (Homo sapiens, UniProt P10635);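 note: CYP2D6 member of a cytochrome P450 panel assay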
# Chain of Cytochrome P450 2D6 (P10635 whole entry): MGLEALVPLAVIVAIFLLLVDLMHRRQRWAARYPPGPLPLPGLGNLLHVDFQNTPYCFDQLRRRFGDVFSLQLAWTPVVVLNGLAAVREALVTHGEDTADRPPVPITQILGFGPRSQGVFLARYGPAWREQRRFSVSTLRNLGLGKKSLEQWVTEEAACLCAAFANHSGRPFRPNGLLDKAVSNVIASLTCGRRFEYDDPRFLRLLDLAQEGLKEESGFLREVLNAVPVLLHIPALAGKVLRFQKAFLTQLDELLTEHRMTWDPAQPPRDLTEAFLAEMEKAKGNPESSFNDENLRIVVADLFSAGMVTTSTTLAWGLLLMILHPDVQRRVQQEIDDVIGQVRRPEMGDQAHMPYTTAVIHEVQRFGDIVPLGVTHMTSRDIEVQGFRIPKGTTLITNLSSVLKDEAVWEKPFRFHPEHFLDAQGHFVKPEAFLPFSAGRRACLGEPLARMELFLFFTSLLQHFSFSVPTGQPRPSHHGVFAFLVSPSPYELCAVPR
# Cytochrome P450 3A4 = Cytochrome P450 3A4 (Homo sapiens, UniProt P08684);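 note: CYP3A4 tested as one member of a cytochrome P450 panel screen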
# Chain of Cytochrome P450 3A4 (P08684 whole entry): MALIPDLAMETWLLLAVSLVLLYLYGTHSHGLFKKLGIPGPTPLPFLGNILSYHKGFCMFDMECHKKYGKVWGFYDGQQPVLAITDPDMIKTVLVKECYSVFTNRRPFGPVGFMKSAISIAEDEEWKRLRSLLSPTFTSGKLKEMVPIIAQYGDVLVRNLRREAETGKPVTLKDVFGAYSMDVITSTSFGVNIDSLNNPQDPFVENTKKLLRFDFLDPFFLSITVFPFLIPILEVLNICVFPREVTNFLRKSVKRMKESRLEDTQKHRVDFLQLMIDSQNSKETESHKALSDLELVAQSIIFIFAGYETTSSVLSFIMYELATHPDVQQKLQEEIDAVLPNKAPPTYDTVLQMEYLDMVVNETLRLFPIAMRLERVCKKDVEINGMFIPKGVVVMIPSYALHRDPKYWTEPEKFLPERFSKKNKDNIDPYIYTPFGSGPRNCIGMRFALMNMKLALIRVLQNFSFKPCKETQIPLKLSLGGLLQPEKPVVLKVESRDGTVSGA
# Cytochrome P450 2C9 = Cytochrome P450 2C9 (Homo sapiens, UniProt P11712)
# Chain of Cytochrome P450 2C9 (P11712 whole entry): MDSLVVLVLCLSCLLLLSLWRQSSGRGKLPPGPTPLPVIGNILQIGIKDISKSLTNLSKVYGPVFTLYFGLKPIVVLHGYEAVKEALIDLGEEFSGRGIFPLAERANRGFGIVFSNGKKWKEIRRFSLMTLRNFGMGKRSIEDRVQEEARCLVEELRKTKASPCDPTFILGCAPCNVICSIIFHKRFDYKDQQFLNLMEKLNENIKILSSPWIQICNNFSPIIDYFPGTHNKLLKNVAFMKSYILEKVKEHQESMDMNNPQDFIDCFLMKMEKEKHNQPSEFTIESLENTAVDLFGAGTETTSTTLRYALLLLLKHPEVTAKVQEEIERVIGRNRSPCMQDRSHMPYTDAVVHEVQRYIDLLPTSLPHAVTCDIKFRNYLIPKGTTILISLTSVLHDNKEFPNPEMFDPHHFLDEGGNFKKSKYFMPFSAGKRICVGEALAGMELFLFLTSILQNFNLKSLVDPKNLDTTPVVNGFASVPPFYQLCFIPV
# Paired box protein Pax-8 = Paired box protein Pax-8 (Homo sapiens, UniProt Q06710); experiment: PAX8 transcriptional activity inhibition in RMG-I – RMG-I cells, luciferase, cherry-pick, dose response (AID 687027); format: functional, cell-based;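 note: luciferase reporter driven by Pax8 target thyroperoxidase promoter measured by SteadyGlo luminescence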
# Chain of Paired box protein Pax-8 (Q06710 whole entry): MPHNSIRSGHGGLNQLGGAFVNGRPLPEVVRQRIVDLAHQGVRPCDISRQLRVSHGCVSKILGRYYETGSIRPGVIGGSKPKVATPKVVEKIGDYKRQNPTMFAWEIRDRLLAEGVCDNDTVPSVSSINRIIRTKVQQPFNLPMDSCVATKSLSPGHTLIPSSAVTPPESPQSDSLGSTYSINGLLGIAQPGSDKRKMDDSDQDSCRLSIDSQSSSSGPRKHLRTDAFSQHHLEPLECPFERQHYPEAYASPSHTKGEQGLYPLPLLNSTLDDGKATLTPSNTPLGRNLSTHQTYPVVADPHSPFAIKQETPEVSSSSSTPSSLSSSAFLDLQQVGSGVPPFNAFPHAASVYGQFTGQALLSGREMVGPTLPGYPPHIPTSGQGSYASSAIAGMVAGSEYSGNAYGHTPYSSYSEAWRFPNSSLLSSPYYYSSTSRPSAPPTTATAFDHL
# [12] = OVCAR-3 cell viability loss – plate reader, dry powder samples, PAX8 inhibitor project, dose response (AID 743044); format: functional, cell-based
# [13] = general cell-killing toxicity readout – plate reader, dry powder samples, cytotoxicity control for PAX8 inhibitor project, dose response (AID 743021); format: functional, cell-based
# [14] = viability loss in Vero cells – cytotoxicity control for Vif-APOBEC3G degradation inhibitor project, dose response (AID 1117358); format: functional; conditions: Vero
# [15] = growth inhibition of yeast DHODH-expressing 3D7 parasites – SYBR Green, dry powder samples, dose response (AID 1159570); format: functional, cell-based;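 note: parasite growth measured after 72 hours of compound exposure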
# [16] = P. falciparum Dd2 growth inhibitors, dose response, SYBR Green, cherry-picked samples (AID 1159567); format: functional, cell-based
# [17] = Dd2 malaria parasite growth inhibition potency – SYBR Green, dry powder samples, dose response (AID 1159566); format: functional, cell-based;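 note: potency for growth inhibition with lower SYBR green DNA signal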
# [18] = growth inhibition of PfATP4-mutant resistant parasites – NITD609-resistant line, SYBR Green, dry powder, dose response (AID 1159571); format: functional, cell-based;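 note: parasites synchronized at ring stage by sorbitol before testing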
# [19] = Trypanosoma cruzi growth suppression in host cells – NIH3T3 host cells, beta-gal luminescence, confirmation (AID 2044); format: functional, cell-based;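 note: intracellular parasites grown in NIH/3T3 mouse fibroblasts as host cells; luminescent beta-galactosidase reporter signal from transgenic T. cruzi replicating inside host cells; inhibitors lower the luminescence signal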
# [20] = NIH3T3 cell viability loss – ATP luminescence, mouse fibroblasts, counter-screen, dose response (AID 2010); format: functional, cell-based;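 note: cells exposed to compound for about 90 hours before reading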
# cells [21] = experiment: cells
# [22] = HPDE-C7 pancreatic duct cell viability loss – fluorescence, HTS (AID 430); format: functional, cell-based; conditions: Homo sapiens
# [23] = viability loss of HPDE-C7K cells – cell-based, fluorescence, HTS, primary screen (AID 431); format: functional; conditions: Homo sapiens
# Kallikrein-7 = Kallikrein-7 (Homo sapiens, UniProt P49862); experiment: Fluorescence Intensity-based biochemical primary high throughput dose response assay to identify activators of kallikrein-7 (K7) zymogen.
# Chain of Kallikrein-7 (P49862 whole entry): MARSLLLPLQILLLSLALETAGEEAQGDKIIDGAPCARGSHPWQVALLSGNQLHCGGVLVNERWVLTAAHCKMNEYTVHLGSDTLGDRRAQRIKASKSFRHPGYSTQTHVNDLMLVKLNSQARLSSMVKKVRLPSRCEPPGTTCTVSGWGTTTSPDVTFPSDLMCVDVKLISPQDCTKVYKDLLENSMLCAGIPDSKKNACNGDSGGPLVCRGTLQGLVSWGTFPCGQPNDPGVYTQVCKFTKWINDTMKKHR
compound,measurement,setting,value
Oc1ccc2ccccc2c1/C=N\C1CCCCC1,IC50,[1],23.3 µM (active)
CC(=O)c1ccc(S(=O)(=O)Nc2ccc(-c3cn4c(n3)SCC4)cc2)cc1,IC50,Prothrombin,> 50 µM (not active)
C(=N\Nc1nc2ccccc2s1)/c1ccc2c(c1)OCO2,IC50,[2],> 67.5 µM (inactive)
same,EC50,[3],> 67.5 µM (inactive)
Cc1cccc(N2CCN(C(=O)C3CCN(c4ncnc5c4nc4n5CCCCC4)CC3)CC2)c1C,AC50,[4],35 µM (active)
same,AC50,[5],34.2 µM (active)
same,AC50,[6],31.3 µM (active)
same,AC50,[7],35.8 µM (active)
same,AC50,[8],27.1 µM (active)
O=C(COc1ccc2c(c1)CCC2)Nc1ccccn1,IC50,cells [9],39.2 µM (active)
same,AC50,[4],45.3 µM (active)
same,AC50,[6],7.18 µM (active)
same,AC50,[7],6.74 µM (active)
same,AC50,[8],33.3 µM (active)
CCOc1nc(NCCN2CCOCC2)nc(Nc2ccc(C)cc2)n1,EC50,cells [10],> 350 µM (not active)
same,EC50,cells [11],> 350 µM (not active)
same,IC50,Prothrombin,> 50 µM (not active)
same,AC50,Cytochrome P450 2D6,11.2 µM (inconclusive)
same,AC50,Cytochrome P450 3A4,15.8 µM (inconclusive)
same,AC50,Cytochrome P450 2C9,11.2 µM (inconclusive)
CC(C)CC#Cc1ccc2c(c1)O[C@H](CN(C)Cc1ccc(C(=O)O)cc1)[C@@H](C)CN([C@H](C)CO)S2(=O)=O,AC50,Paired box protein Pax-8,19.3 µM (active)
same,AC50,[12],57.2 µM (active)
same,AC50,[13],48 µM (active)
COC(=O)C1=C(N)Oc2cc(C)n(Cc3cccnc3)c(=O)c2C1c1cccc(OC)c1OC (configuration not stated),CC50,[14],> 40 µM (active)
Nc1nnc(SCCCC(=O)c2ccccc2)s1,IC50,Prothrombin,> 50 µM (not active)
COc1ccc2c3c(n(C)c2c1)[C@@H](CO)N(C(=O)Nc1ccc(F)cc1)CC31CCN(Cc2ccccn2)CC1,AC50,[15],1.69 µM (active)
same,AC50,[16],3.18 µM (active)
same,AC50,[17],2.05 µM (active)
same,AC50,[18],2.11 µM (active)
Cc1ccc2c(CN3CCN(Cc4ccccc4)CC3)cc(=O)oc2c1,EC50,[19],< 0.1 µM (active)
same,EC50,[20],> 60 µM (not active)
same,EC50,cells [21],0.049 µM (active)
CCOC(=O)C1=C(N)c2ccccc2CC1C(C)C (configuration not stated),EC50,[22],> 20 µM (not active)
same,EC50,[23],> 20 µM (not active)
COc1c(N2CCN(C(=S)Nc3ccccc3F)C(C)C2)c(F)cc2c(=O)c(C(=O)O)cn(C3CC3)c12 (configuration not stated),EC50,Kallikrein-7,> 69.5 µM (inactive)
O=C(CCCN1C(=O)c2cccnc2C1=O)N1CC(=O)N(CCc2ccccc2)C(=O)C1,EC50,[22],> 20 µM (not active)
same,EC50,[23],> 20 µM (not active)
